US8691222B2, “NLRR-1 antagonists and uses thereof” (Genentech, Inc., priority 2007, dated 2014)

Tests used:
[1] = tested on: NCI-H2009 cells; details: NCI-H2009, characterized as sensitive to erlotinib; cited from earlier work
[2] = tested on: lung tumor cell lines which endogenously express NLRR-1; details: several lung tumor cell lines classified as resistant to erlotinib; cited from earlier work
[3] = tested on: EGFR in NCI-H2009, NCI-H226, NCI-H647 cells; assay: EGFR flow cytometry and immunoblot after NLRR-1 siRNA knockdown; format: cell-based, human
Description: (§1) The NLRR-1 siRNA duplex was designed and synthesized by Dharmacon (Lafayette, Colo.). The sense sequence is […] (SEQ ID NO: 11) and the antisense sequence is 5′-[…] (SEQ ID NO: 12). NCI-H2009, NCI-H647, NCI-H226, and SK-MES-1 cells were seeded at 2830/cm^2 and NCI-H520 and NCI-H1781 cells were seeded at 5660/cm^2. 100 nM of siRNA was transfected with DharmaFECT 4 for 6 to 8 hours before the transfectant was replaced with fresh media. A non-targeting siRNA sequence (Dharmacon) was used as a negative control. RT-PCR was performed on RNA extracted from 60 mm plates using RNeasy (Qiagen, Valencia, Calif.) per manufacturer's instructions. EGFR flow cytometry and immunoblot: After siRNA transfection for 24 hours, cells were harvested and stained with α-EGFR antibody conjugated to PE (BD Pharmingen) and propidium iodide for flow cytometry analysis. 10,000 events were collected and cells were gated on FSC, SSC, and PI. For immunoblot analysis, lysates were immunoblotted with α-EGFR (MBL) or α-βtubulin (Santa Cruz Biotechnology). […] Cell growth was assessed after 4 days by Cell Titer Glo (Promega, Madison, Wis.) per manufacturer's instructions. […] For apoptosis assay with starvation, cells were starved in Optimem I. For both assays, cell viability was measured with Cell Titer Glo (Promega, Madison, Wis.) and apoptosis was measured with Caspase-Glo 3/7 (Promega) after 2 days. […]

[4] = tested on: SK-MES1 lung carcinoma cell line; assay: Proliferation assay (Cell Titer Glo) after siRNA knockdown, SK-MES1; format: cell-based, human; details: 100 nM siRNA; 4 days; SK-MES1, does not express NLRR-1
Description: as §1

[5] = tested on: cell lines that endogenously expressed NLRR-1; assay: Apoptosis assay with starvation (caspase 3/7) after siRNA knockdown; format: cell-based, human; details: vs non-targeting control RNA
Description: as §1, with “instructions.” for “instructions. EGFR flow cytometry and immunoblot: After siRNA transfection for 24 hours, cells were harvested and stained with α-EGFR antibody conjugated to PE (BD Pharmingen) and propidium iodide for flow cytometry analysis. 10,000 events were collected and cells were gated on FSC, SSC, and PI. For immunoblot analysis, lysates were immunoblotted with α-EGFR (MBL) or α-βtubulin (Santa Cruz Biotechnology).”
EGFR pathway activation in tumor cells has consequences for many important cellular processes, including cell survival. […] NLRR-1 was knocked down using siRNA, cells were subjected to starvation to promote apoptosis, and apoptosis was measured by caspase 3/7 activity and normalized for viable cells (FIG. 6C).

[6] = tested on: NCI-H647 cells; assay: Apoptosis and erlotinib synergy assay, NCI-H647; format: cell-based, human; details: NLRR-1 siRNA knockdown plus increasing concentrations of erlotinib; NCI-H647, erlotinib-resistant; FIG. 8A
Description: as §1

[7] = tested on: NCI-H1781 cells; assay: Apoptosis and erlotinib synergy assay, NCI-H1781; format: cell-based, human; details: NLRR-1 siRNA knockdown plus increasing concentrations of erlotinib; NCI-H1781, resistant; FIG. 8B
Description: as §1

[8] = tested on: NCI-H226 cells; assay: Apoptosis and erlotinib synergy assay, NCI-H226; format: cell-based, human; details: NLRR-1 siRNA knockdown plus increasing concentrations of erlotinib; NCI-H226, resistant; FIG. 8C
Description: as §1

[9] = tested on: NCI-H520 cells; assay: Apoptosis and erlotinib synergy assay, NCI-H520; format: cell-based, human; details: NLRR-1 siRNA knockdown plus increasing concentrations of erlotinib; NCI-H520, resistant; FIG. 8D
Description: as §1

[10] = tested on: NCI-H2009 cells; assay: Apoptosis and erlotinib synergy assay, NCI-H2009; format: cell-based, human; details: NLRR-1 siRNA knockdown plus increasing concentrations of erlotinib; NCI-H2009, erlotinib-sensitive; FIG. 8E
Description: as §1

[11] = tested on: SK-MES cells (NLRR-1-negative); assay: Apoptosis and erlotinib synergy assay, SK-MES; format: cell-based, human; details: NLRR-1 siRNA knockdown plus increasing concentrations of erlotinib, erlotinib-sensitive, FIG. 8F
Description: as §1

| Molecule | IC50 [1] [µM] | IC50 [2] [µM] | total EGFR protein level ([3]; NLRR-1 depleted vs control-depleted cells, immunoblot) | surface EGFR protein level ([3]; siRNA knockdown 24 hours, NCI-H2009, NCI-H226, NCI-H647, vs non-targeting siRNA, flow cytometry) | proliferation (ATP-based cell viability) [4] | apoptosis (caspase 3/7 activity normalized for viable cells) [5] | apoptosis (caspase 3/7 activity) in presence of erlotinib [6] | apoptosis (caspase 3/7 activity) in presence of erlotinib [7] | apoptosis (caspase 3/7 activity) in presence of erlotinib [8] | apoptosis (caspase 3/7 activity) in presence of erlotinib [9] | apoptosis (caspase 3/7 activity) in presence of erlotinib [10] | apoptosis (caspase 3/7 activity) in presence of erlotinib [11] |
| --- | --- | --- | --- | --- | --- | --- | --- | --- | --- | --- | --- | --- |
| C#Cc1cccc(Nc2ncnc3cc(OCCOC)c(OCCOC)cc23)c1 [erlotinib] | ≤ 2 | ≥ 8 | – | – | – | – | – | – | – | – | – | – |
| NLRR-1 siRNA: siRNA duplex by Dharmacon; sense GCCAGAACCUGAAAUUUACUU (SEQ ID NO: 11), antisense 5′-PGUAAAUUUCAGGUUCUGGCUU (SEQ ID NO: 12) (5' phosphate on antisense, further chemistry not given here) | – | – | unchanged | increase in surface EGFR | no significant defect in proliferation | increase in apoptosis | significant increase in sensitivity | synergy | synergy | possibly also, to a lesser degree | did not show any increased apoptosis | did not show any increase in apoptosis |
